Assay results from article PMC5581131, “The novel sphingosine-1-phosphate receptors antagonist AD2900 affects lymphocyte activation and inhibits T-cell entry into the lymph nodes” (Oncotarget, 2017).

Tests used:
human PBMCs = assay: 5-day MLR with Et-18-OCH3, BAPTA-AM or 8-bromo-cAMP preincubation, analogues present throughout; type: cell-based; conditions: 2 μM
Experimental: To determine whether the effect of inhibition of AD2900 on PBMC proliferation is dependent on the same signal transduction pathways, we next examined the capacities of the intracellular Ca^2+ chelator-BAPTA-AM, phosphatidylinositol-specific PLC inhibitor-Et-18-OCH3, and cell-permeate exogenous cAMP-8-bromo-cAMP to alter the suppressive effect of AD2900 and FTY720 on PBMC proliferation. S1P served as a positive control (Figures 2A, 2B, and 2C, respectively). PBMCs were pre-incubated for 1 hour with the inhibitors before the addition of 2 μM AD2900, FTY720, or S1P in the MLR experiment. The inhibitors and the analogues were present in the culture throughout the allogeneic activation. AD2900 suppression of PBMC proliferation was reduced from 59% ± 3% to 32% ± 7% by the exogenous cAMP. BAPTA-AM also partially reversed AD2900 suppression of PBMC proliferation from 59% ± 3% to 32% ± 3%, yet Et-18-OCH3 had no effect (Figure 2A).
Figure 2 Effect of AD2900 on proliferation is dependent on cAMP reduction and calcium signal transduction The effect of Edelfosine (Et-18-OCH3) (Et), BAPTA-AM (BAPTA), or 8-bromo-cAMP (8-b-CAMP) on the inhibition of PBMC proliferation was tested in a 5-day MLR experiment. The cells were incubated with 1 μM Edelfosine, 0.2 μM BAPTA-AM, or 5 μM 8-bromo-cAMP for 1 hour before the addition of sphingolipid analogues, 2 μM AD2900 (AD) (A), FTY720 (FTY) (B), or S1P (C). Significances are compared to AD2900/FTY/S1P without preincubation, respectively. Graphs summarize the results of at least four independent experiments. Results of Student’s t-test: *(P < 0.05, two-tailed test), ** (P < 0.01, two-tailed test).
Human PBLs were collected from human whole blood collected from healthy donors. Subsequently, the cells were centrifuged on a Ficoll-Paque gradient (Fresenius Kabi Norge AS, Oslo, Norway) and were isolated from the interphase layer. For the human MLR experiment, PBMCs from one healthy donor were pretreated for 1 day with AD2900, AD2730, AD2750, YZ297, YZ158, FTY720, or SEW2871. After 24 h, cells were washed and plated at a concentration of 5 × 10^4 cells/well in round bottom 96-well plates containing RPMI-1640 medium Supplemented with 10% human AB serum, 1% penicillin/streptomycin, and 1% l-glutamine (Beit Haemek, Israel). PBMCs from a second donor were irradiated at 3000 γ dosage and added to the plate in a 1:1 ratio with the first donor cells. The cells were cultured for 5 days. For the thymidine incorporation assay, after 4 days of co-culture, cells were pulsed with ^3H-thymidine at 1 μCi (0.037MBq) per well (PerkinElmer, MA, USA) for 16 additional hours and then harvested onto glass-fiber filters. ^3H-thymidine incorporation was measured using Top Count. NXT (PerkinElmer, UK). In other experiments, the supernatant was harvested after 5 days of co-culture for IFN-γ and TNF-α cytokine ELISA measurements (eBioscience, CA, USA). The cells were then collected for assessing apoptosis by FACS in MACSQuant analyzer (Miltenyi Biotech, Germany). In another set of experiments, the PBMCs of two donors were mixed. Sphingolipid analogues were then added to the culture and sustained through the 5 days of the MLR experiment.

C57BL/6 mice = assay: S1P1-positive T-cell population in vivo, FACS; parameters: species or system mouse; conditions: for increase of S1P1-positive T cells in the blood, of normal expression levels / increase of S1P1 population, spleen T cells / decrease of S1P1 population in the lymph nodes: 2-day treatment
Description: The S1P gradient is a crucial factor for lymphocytes to egress from lymphoid tissues and re-enter the circulation. […] To identify whether the effect of AD2900 on T-cell localization may be mediated by an influence on S1P1 and CCR7 expression, we tested the percentage of S1P1- and CCR7-positive T-cell populations in the blood, spleen, and lymph node in each mouse after a 2-day treatment with AD2900. The percentage of cells expressing S1P1 or CCR7 on their cell surface was detected by FACS analysis and was calculated as % of expressing population in non-treated animals. […] AD2900 elevates the S1P1-expressing population in the blood and spleen, whereas it reduces this population in the lymph nodes. […] In the lymph nodes, the […] population was not affected by AD2900 treatment (Figure 7F).
Figure 7 The influence of AD2900 on S1P1- and CCR7-positive T-cell populations in blood, spleen, and peripheral lymph nodes C57BL/6 mice were orally administered with 1.8, 2.7, and 3.6 mg/l AD2900 or 1.8 mg/l FTY720 for 2 days, as shown in Figure 4. Leukocytes from blood, spleen, and pLNs were collected and stained with CD3e and S1P1 or CCR7 fluorescent antibodies and then analyzed by FACS analysis. The percentages of S1P1+ CD3e+ T cells from blood (A), spleen (B), and pLNs (C) are shown. The percentages of CCR7+ CD3e+ T cells from blood (D), spleen (E), and pLNs (F) are shown. All the significances are compared to untreated healthy mice. Results summarize at least three independent experiments. Results of Student’s t-test:*(P < 0.05, two-tailed test), ** (P < 0.01, two-tailed test), *** (P < 0.001, two-tailed test), **** (P < 0.0001, two-tailed test).
C57BL/6 female mice aged 7–8 weeks were obtained from Harlan Laboratories (Jerusalem, Israel). The animal study was conducted under appropriate conditions and was approved by the Institutional Animal Care and Use Committee of the Hebrew University of Jerusalem in accordance with the national laws and regulations for the protection of animals. AD2900 was dissolved in 10% BSA (MP Biomedicals, CA, USA) in DDW at 1 mg/ml and then further diluted in 200 ml water to get final concentrations at 1.8, 2.7, or 3.6 mg/l. AD2900 and FTY720 were supplied ad libitum to the mice for 2 days or 7 days. At the end of the experiment, blood was collected, and the mice were sacrificed and tissues (lymph nodes and spleen) were harvested.

Row | Structure (SMILES) | suppression of PBMC proliferation (human PBMCs; present throughout MLR, without preincubation) | suppression of PBMC proliferation with BAPTA-AM (human PBMCs; 1 hour preincubation with 0.2 μM BAPTA-AM) | effect of Et-18-OCH3 on suppression of PBMC proliferation (human PBMCs; 1 hour preincubation with 1 μM Et-18-OCH3) | suppression of PBMC proliferation with exogenous cAMP (human PBMCs; 1 hour preincubation with 5 μM 8-bromo-cAMP) | increase of S1P1-positive T cells in the blood, of normal expression levels (C57BL/6 mice; 1.8 mg/l) | increase of S1P1 population, spleen T cells (C57BL/6 mice; 1.8 mg/l) | decrease of S1P1 population in the lymph nodes (C57BL/6 mice; 2.7 mg/l) | increase of S1P1-positive T cells in the blood, of normal expression levels (C57BL/6 mice; 2.7 mg/l) | increase of S1P1 population, spleen T cells (C57BL/6 mice; 2.7 mg/l) | decrease of S1P1 population in the lymph nodes (C57BL/6 mice; 3.6 mg/l) | increase of S1P1-positive T cells in the blood, of normal expression levels (C57BL/6 mice; 3.6 mg/l) | effect of Et-18-OCH3, BAPTA-AM and 8-bromo-cAMP on suppression of PBMC proliferation (human PBMCs; 1 hour preincubation with the inhibitors) | effects on the S1P1 population in murine blood, spleen, and lymph nodes (C57BL/6 mice; 1.8 mg/l, 2 days)
1 | CCCCCCCCCCCCCCCCNC(CO)(CO)CO [AD2900] | 59% ± 3% | 32% ± 3% | no effect | 32% ± 7% | 20% ± 4% | 12% ± 5% | 12% ± 3% | 16% ± 5% | 31% ± 5% | 18% ± 11% | 18% ± 4% |  | 
2 | CCCCCCCCc1ccc(CCC(N)(CO)CO)cc1 [FTY720, Fingolimod, reference compound] |  |  |  |  |  |  |  |  |  |  |  | not nullified by any of these interventions | did not demonstrate any effects
